Source: article PMC7400577 (Scientific Reports, 2020)
Where “and” joins values, the source holds several entries; their conditions need not be identical. Identical values can stand only once. Like-named read-outs stand apart in the source and are kept apart here.

Tests used:
hBGT1 [1] = target: T1, hBGT1 (Homo sapiens, UniProt P48065); format: cell-based; details: for IC50: 30 nM [3H]GABA, 3 min, CHO Flp-In cells stably expressing hBGT1; for subtype-selectivity for hBGT1 over the other hGATs: estimated from [3H]GABA uptake IC50 values; for subtype-selectivity for hBGT1 over the other hGATs / decrease of hBGT1 inhibitory potency compared to ATPCA: CHO Flp-In cells; for decrease of hBGT1 inhibitory potency compared to ATPCA: [3H]GABA uptake
T1 construct: expressed in transfected cells
T1 sequence (P48065 1-614): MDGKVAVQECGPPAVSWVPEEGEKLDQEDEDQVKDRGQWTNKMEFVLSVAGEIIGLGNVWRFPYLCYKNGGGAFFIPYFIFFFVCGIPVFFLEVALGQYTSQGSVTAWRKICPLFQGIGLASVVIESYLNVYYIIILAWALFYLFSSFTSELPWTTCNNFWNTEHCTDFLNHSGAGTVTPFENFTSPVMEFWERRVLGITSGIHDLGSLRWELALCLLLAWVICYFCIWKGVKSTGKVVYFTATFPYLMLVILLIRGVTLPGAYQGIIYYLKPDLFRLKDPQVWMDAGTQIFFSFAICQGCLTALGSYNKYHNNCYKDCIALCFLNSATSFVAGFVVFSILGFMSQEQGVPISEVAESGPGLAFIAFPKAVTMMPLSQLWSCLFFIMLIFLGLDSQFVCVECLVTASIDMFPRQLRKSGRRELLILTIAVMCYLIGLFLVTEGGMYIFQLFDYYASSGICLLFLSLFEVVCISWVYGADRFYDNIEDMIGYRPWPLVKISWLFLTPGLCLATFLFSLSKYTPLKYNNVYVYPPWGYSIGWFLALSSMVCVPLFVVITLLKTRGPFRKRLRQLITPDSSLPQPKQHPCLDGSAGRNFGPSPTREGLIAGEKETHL
Experimental: (§1) CHO Flp-In and tsA201 cells were cultured at 37 °C in a humidified atmosphere of […] and 5% CO2. As previously described[38],[63], CHO Flp-In cells stably expressing the hGATs were cultured in Ham’s F12 Nutrient Mix supplemented with 10% FBS, 1% P/S and plasmocin (5 µg/mL) under the selection pressure of hygromycin B (200 µg/mL). DMEM with GlutaMAX-I supplemented with 10% FBS and 1% P/S was used as growth medium for the tsA201 cells, which were transfected with DNA constructs using PolyFect according to the manufacturer’s specifications (Qiagen, West Sussex, UK), but with half of the recommended reagent volumes.
(§2) Uptake assays were performed in PDL-coated white 96-well polystyrene cell culture microplates (PerkinElmer, Boston, MA, USA) as previously described[38],[63]. […] Assay buffer was HBSS supplemented with 20 mM HEPES, 1 mM CaCl2 and 1 mM MgCl2, pH 7.4. […] After termination, scintillation liquid (MicroScint-20, PerkinElmer) was added and the radioactivity measured in a TopCount NXT Microplate Scintillation Counter (PerkinElmer).
(§3) Data analysis and statistical evaluation were performed in GraphPad Prism 7.02 (GraphPad Software, San Diego, CA, USA). Concentration-uptake inhibition curves, generated from the radioligand-based uptake assays, were fitted by non-linear regression, using the equation for sigmoidal concentration–response with variable slope: Y = Bottom + (Top–Bottom)/(1 + 10^((logIC50 − X) × HillSlope)), where Y is the response, X is the logarithm of the concentration, Top and Bottom are the plateaus in same units as Y, logIC50 is the concentration giving a response halfway between Bottom and Top, and the HillSlope is the steepness of the curve. For the substrate concentration–response curves generated from the FMP assay, the same equation was used but with logEC50 instead for logIC50. Unless otherwise stated, data are presented as means ± S.E.M. of at least three independent pooled experiments performed in triplicates.

hGAT2 [2] = target: T2, hGAT2 (Homo sapiens, UniProt Q9NSD5); assay: [3H]GABA uptake inhibition at hGAT2 stably expressed in CHO Flp-In cells; format: cell-based; details: 30 nM [3H]GABA, 3 min, CHO Flp-In cells stably expressing hGAT2; read-out: IC50 hGAT2
T2 construct: expressed in transfected cells
T2 sequence (Q9NSD5 1-602): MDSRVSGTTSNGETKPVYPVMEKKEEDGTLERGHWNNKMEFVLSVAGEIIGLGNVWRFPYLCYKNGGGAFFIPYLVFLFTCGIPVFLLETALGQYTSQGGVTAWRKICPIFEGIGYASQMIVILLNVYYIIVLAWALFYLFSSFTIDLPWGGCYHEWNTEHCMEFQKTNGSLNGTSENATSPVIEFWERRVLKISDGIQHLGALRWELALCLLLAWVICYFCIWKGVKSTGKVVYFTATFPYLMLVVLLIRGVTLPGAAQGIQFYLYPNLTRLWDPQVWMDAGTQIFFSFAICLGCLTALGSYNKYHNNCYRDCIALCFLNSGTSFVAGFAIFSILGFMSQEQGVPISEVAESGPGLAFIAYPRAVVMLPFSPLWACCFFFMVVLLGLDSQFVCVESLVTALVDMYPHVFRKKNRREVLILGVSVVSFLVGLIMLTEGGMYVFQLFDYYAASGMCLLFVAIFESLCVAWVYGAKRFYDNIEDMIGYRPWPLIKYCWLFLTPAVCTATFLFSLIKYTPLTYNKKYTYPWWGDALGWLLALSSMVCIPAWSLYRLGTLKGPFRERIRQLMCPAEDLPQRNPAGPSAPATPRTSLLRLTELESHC
Experimental: as §1, §2, §3

hBGT1 [3] = target: T1, hBGT1; assay: FLIPR Membrane Potential (FMP) assay at hBGT1 stably expressed in CHO Flp-In cells; format: cell-based; details: for substrate character at hBGT1 in FMP assay: concentration-dependent increase in fluorescence signal; for Mean Rmax as % of GABA Rmax ± S.E.M. / EC50: hBGT1 stably expressed in CHO Flp-In cells; for Mean Rmax as % of GABA Rmax ± S.E.M.: FMP assay; for EC50: three independent experiments
Experimental: The fluorescence-based FMP assay was performed as previously described, for the functional characterization of the electrogenic transport of substrates via hBGT1. Briefly, CHO Flp-In cells stably expressing hBGT1 or hGAT1 were plated (~ 50,000 cells/well) into black PDL-coated 96-well plates with clear bottom (VWR, Radnor, PA, USA). The next day, the growth medium was removed, and cells were washed once with HBSS assay buffer and FMP Blue Dye (Molecular Devices, Crawley, UK), added, and incubated. Ligands were added via the NOVOStar plate reader (BMG Labtech GmbH, Offenburg, Germany), preheated to 37 °C, approximately 10 min before reading of the cell plate. The fluorescence signals were measured for 33.8 s upon ligand addition using an emission and excitation wavelength of […], respectively. Electrogenic transport of substrates via hBGT1 will lead to an influx of the negatively charged FMP Blue dye that will bind to intracellular proteins and lipids resulting in an increase in the fluorescence signal.
as §3

hGAT2 [4] = target: T2, hGAT2; details: [3H]GABA uptake, recombinant hGAT2; adapted from Al-Khawaja et al.; cited from earlier work
hBGT1 [5] = target: T1, hBGT1; details: [3H]GABA uptake, recombinant hBGT1; adapted from Al-Khawaja et al.; cited from earlier work
[6] = read-out: pIC50 ± S.E.M. hBGT1 (converted)

| Structure (SMILES) | IC50 (hBGT1 [1]; read-out: IC50 hBGT1) | IC50 (hBGT1 [1]; [6]) | subtype-selectivity for hBGT1 over the other hGATs (hBGT1 [1]) | IC50 (hGAT2 [2]) | substrate character at hBGT1 in FMP assay (hBGT1 [3]) | Mean Rmax as % of GABA Rmax ± S.E.M. (hBGT1 [3]) | EC50 (hBGT1 [3]) | IC50 (hGAT2 [4]) | pIC50 ± S.E.M. hGAT2 (hGAT2 [4]) | IC50 (hBGT1 [5]) | pIC50 ± S.E.M. hBGT1 (hBGT1 [5]) | decrease of hBGT1 inhibitory potency compared to ATPCA (hBGT1 [1]) |
| --- | --- | --- | --- | --- | --- | --- | --- | --- | --- | --- | --- | --- |
| C[C@@H]1N=C(N)NC[C@@H]1C(=O)O (single isomer, unassigned) [l-15a] | < 100 µM | 33.9 µM | ≥ 29 times | > 1000 µM | substrates for hBGT1 | 36 ± 2.9 % of GABA Rmax | 40 µM |  |  |  |  |  |
| NC1=NCC(C(=O)O)CN1 (stereo not shown) [ATPCA, 2-amino-1,4,5,6-tetrahydropyrimidine-5-carboxylic acid, reference compound] |  |  |  |  |  |  |  | 41 µM | 4.39 ± 0.09 | 2.5 µM | 5.60 ± 0.11 |  |
| NC1=NCC(C(=O)O)CC1 (stereo not shown) [compound 2, 6-amino-2,3,4,5-tetrahydropyridine-3-carboxylic acid, reference compound] | < 100 µM | 12.9 µM |  | > 1000 µM | substrates for hBGT1 | 103 ± 3.9 % of GABA Rmax and 76 ± 2.7 % of GABA Rmax |  |  |  | 9.8 µM |  | fivefold |
| CCN1CC(C(=O)O)CN=C1N.Cl (stereo not shown) [compound 3] | 86 µM |  | at least 12 times | > 1000 µM | substrates for hBGT1 |  |  |  |  |  |  | 20–65 fold and 34 fold |
| Cl.NC1=NCC(C(=O)O)CN1Cc1ccccc1 (stereo not shown) [compound 4] | 163 µM |  |  | 105 µM |  |  |  |  |  |  |  | 20–65 fold |
| NC1=NC=C(C(=O)O)CN1.O=C(O)C(F)(F)F [compound 11] | 48 µM | 46.8 µM | ≥ 21 times | > 1000 µM | substrates for hBGT1 | 95 ± 4.0 % of GABA Rmax | 75 µM |  |  |  |  | 19 fold |
